Several values for one entry are separate records, joined by “and”; a condition that tells them apart may be missing. Equal values may be shown once.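 Each compound was tested at five concentrations against cells in 96-well plates for 48 hours. Here, GI50 denotes the concentration required for 50% inhibition of growth. The concentration for full growth arrest is given as TGI.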
How the values were obtained:
Assay in all cases: DTP human tumour cell line panel, 48 h
TK-10 renal = test system: TK-10 renal
M14 melanoma = test system: M14 melanoma
CCRF-CEM leukemia = test system: CCRF-CEM leukemia
NCI-H23 lung = test system: NCI-H23 lung
UO-31 renal = test system: UO-31 renal
SW-620 colon = test system: SW-620 colon
SF-539 CNS = test system: SF-539 CNS
LOX IMVI melanoma = test system: LOX IMVI melanoma

Row | SMILES | GI50 (TK-10 renal) [µM] | TGI (TK-10 renal) [µM] | GI50 (M14 melanoma) [nM] | TGI (M14 melanoma) [µM] | GI50 (CCRF-CEM leukemia) | TGI (CCRF-CEM leukemia) [µM] | GI50 (NCI-H23 lung) | TGI (NCI-H23 lung) [µM] | GI50 (UO-31 renal) [nM] | TGI (UO-31 renal) [µM] | GI50 (SW-620 colon) | TGI (SW-620 colon) [µM] | GI50 (SF-539 CNS) [nM] | TGI (SF-539 CNS) [µM] | GI50 (LOX IMVI melanoma) | TGI (LOX IMVI melanoma) [µM]
1 | Fc1ccc(-c2c(-c3ccncc3)nc3n2CCS3)cc1 | > 25 | > 25 | > 25000 | > 25 | > 25000 nM | > 25 | > 25000 nM | > 25 | > 25000 | > 25 | > 25000 nM | > 25 | > 25000 | > 25 | > 25000 nM | > 25
2 | Oc1ccc(C=Nc2ccccc2O)cc1 | – | > 100 | – | > 100 | – | > 100 | – | > 100 | – | > 100 | – | > 100 | – | > 100 | – | > 100
3 | CCOC(=O)c1cc(C(=O)c2ccc(OC)cc2)n2ccc(/C=C/c3cc[n+](CC(=O)c4ccc(OC)cc4)cc3)cc12 | 2.01 | 5.76 | 1770 | 3.8 | – | – | 2220 nM | 5.5 | > 100000 | > 100 | 1720 nM | 4.02 | – | – | 1510 nM | 3.66
4 | O=C1N[C@@H]2[C@@H](O)[C@@H](O)[C@H](O)C[C@H]2c2cc3c(c(O)c21)OCCO3 | 0.684 | 5.09 | 246 | 1.04 | 73.7 nM | 1.83 | 238 nM | 0.915 | 294 | 1.72 | 233 nM | 1.55 | 254 | 0.928 | 167 nM | 0.444
5 | C=CN(C(=O)N1CCN(c2cc3c(cc2F)c(=O)c(C(=O)O)cn3C2CC2)CC1)c1nc(-c2ccc(OC)cc2)cs1 | 5.23 | 23.7 | 3610 | > 100 | 3450 nM | > 100 | 3480 nM | 14.9 | 2100 | > 100 | 4040 nM | > 100 | 2800 | 7.78 | 2450 nM | > 100
6 | COc1cc(/C=C/c2cc(/C=C/c3ccc(O)c(OC)c3)n(C(=O)c3ccc(Cl)cc3)n2)ccc1O | 4.2 | 14.7 | 1500 | 15.2 | 1640 nM | > 100 | 2350 nM | 7.95 | 1390 | 10.1 | 3120 nM | 13.8 | 1240 | 6.07 | – | –
7 | CC[C@H](C)[C@H](NC(=O)[C@H]1CCCCN1C)C(=O)N(C)[C@H](C[C@@H](OC(C)=O)c1cccc(C(=O)N[C@@H](Cc2ccccc2)C[C@H](C)C(=O)OC)n1)C(C)C | – | > 25 | 2.27 | 0.0128 | 4.95 nM and 2.5 nM | > 25 | 4.43 nM and 5.21 nM | > 25 | – | > 25 | 3.17 nM and 2.5 nM | > 25 | 5.92 | 0.0183 | 6.7 nM and 2.5 nM | > 25
8 | O=C(NCCCCN1CCOCC1)c1cc2ccccc2o1 | > 100 | > 100 | > 100000 | > 100 | – | – | > 100000 nM | > 100 | > 100000 | > 100 | > 100000 nM | > 100 | > 100000 | > 100 | > 100000 nM | > 100
9 | C=C(c1ccc(OC)c(/C=C/C(=O)c2ccc3c(c2)OCO3)c1)c1cc(OC)c(OC)c(OC)c1 | 4.79 | > 100 | – | – | 916 nM | > 100 | 3200 nM | > 100 | 3100 | > 100 | – | – | 2360 | 7.24 | 1580 nM | 3.52
10 | O=C(O)CSc1n[nH]c(=O)[nH]c1=O | – | – | – | > 100 | – | > 100 | – | > 100 | – | > 100 | – | > 100 | – | > 100 | – | > 100
11 | Nc1nc(/C=C\c2ccc([N+](=O)[O-])s2)nc(N2CCN(c3ccccc3)CC2)n1 | 72.1 | > 100 | 19500 | 39.3 | 29300 nM | 79.1 | – | – | 18700 | 43.7 | 6300 nM | 27.9 | 40900 | > 100 | 15700 nM | 29.1
12 | CC(=O)O[C@@H]1C2CCC3C(CC[C@@]4(C)C3CC[C@@H]4C(C)N(C)C)[C@@]2(C)CC[C@@H]1NC(=O)C=C(C)C (stereo not given in full) | 5.21 | 17.4 | 1850 | 3.63 | 2070 nM | 6.59 | 3130 nM | 14 | 1500 | 3.33 | 1730 nM | 3.48 | 1340 | 2.71 | 1470 nM | 3.09
13 | Cc1nc([N+](=O)[O-])cn1-c1nc2ccccn2c1[N+](=O)[O-] | – | > 100 | – | > 100 | – | – | – | > 100 | – | > 100 | – | > 100 | – | > 100 | – | –
14 | CN[C@H]1CN(c2ccc3c(=O)c(C(=O)O)cn(-c4nccs4)c3n2)C[C@@H]1OC | 1.1 | 4.13 | 783 | 2.34 | 316 nM | > 22.9 | 340 nM | 2.01 | 566 | 2.93 | 633 nM | 3.54 | 592 | 4.14 | 266 nM | 3.4
15 | OC(CNc1ccnc2cc(Cl)ccc12)CNc1ccnc2cc(Cl)ccc12 | 2.13 | 4.86 | 1730 | 3.18 | – | – | 2790 nM | 7.77 | 17000 | 38 | 1660 nM | 3.21 | 1740 | 3.3 | – | –
16 | O=c1oc2ccc(I)cc2c(=O)n1-c1ccc(Br)cc1F | 3.81 | 10.2 | 725 | 4.99 | 1930 nM | 10.4 | 658 nM | 3.99 | 330 | 2.72 | 1100 nM | 9.68 | 632 | 4.99 | 626 nM | 5.86
17 | CNC(=O)c1ccc(N2C(=S)N(c3cnc(C#N)c(C(F)(F)F)c3)C(=O)C23CCC3)cc1F | > 100 | > 100 | > 100000 | > 100 | > 100000 nM | > 100 | > 100000 nM | > 100 | > 72100 | > 100 | > 100000 nM | > 100 | > 100000 | > 100 | > 100000 nM | > 100

— PubChem BioAssay (NCI)
